From US20230398153A1, “A METHOD FOR EFFICIENT MICROGLIA REPLACEMENT” (The Board of Trustees of the Leland Stanford Junior …, priority 2020, published 2023)

System: endogenous microglia
Assay: Direct intracerebral injection of GFP bone marrow cells with or without PLX5622 pre-treatment
Format: in vivo, mouse
Details: 21-day PLX5622 pre-treatment; 14 days post IC injection
Description: FIG. 1. Microglia replacement after bone marrow transplantation is a slow, inefficient and variable process. (A) Schematic overview of bone marrow transplantation (HSCT). Recipient mice were received intraperitoneal (IP) injection of busulfan for 5 days at 25 mg/kg/day (i.e. 125 mg/kg total dose) and then transplanted with GFP-expressing bone marrow cells via intravenous (IV) injection. Donor chimerism in peripheral blood (PB) and brain myeloid cells was analyzed at the indicated time points. (B and C) Donor chimerism in PB leukocytes (CD45+ cells) and brain myeloid cells (CD45+CD11b+ cells) was analyzed by flow cytometry at the indicated time point. […] GFP chimerism in PB leukocytes (B) (Mean±SEM, n=5-20/time point, ***p<0.001, ns: not significant, ANOVA). GFP chimerism in brain myeloid cells (C) (Mean±SEM, n=5/time point, *p<0.05, **p<0.01, ns: not significant, ANOVA). (D) Flow cytometry analysis of GFP+bone marrow cells 14 days after direct intracerebral (IC) injection with (bottom) and without (top) PLX5622 pre-treatment of recipient mice. […] (F) Quantification of transplanted GFP+bone marrow cells in coronal brain sections. […] Horizontal bars represent mean values (n=3/group, 3 brain slices/animal were quantified. **p<0.01, ***p<0.001, Student's t-test). […] (H) Microglia chimerism was analyzed by flow cytometry 14 days post IV injection. […]

## COc1ncc(F)cc1CNc1ccc(Cc2c[nH]c3ncc(C)cc23)c(F)n1 [PLX5622]
  fate of bone marrow cells injected into the brain: adopted microglia-like morphologies, expressed the microglial marker Iba-1, were more numerous, and dispersed wider into the brain parenchyma
